According to publication PMC8881610 (Nature Communications, 2022):
Read-outs that look alike come from different tables or passages of the source. Where a SMILES comes first, the peptide text is derived from it. [ ]: non-standard residue; d: D form. Aib = CC(C)(N)C(=O)O

Experiments:
Format in all cases: cell-based
GLP-1R = GLP-1R (Homo sapiens, UniProt P43220); assay: β-arrestin 2 recruitment (BRET); set-up: expressed in transfected cells; host or cells: HEK293T; details: GLP-1R WT, HEK293T; for Emax: HEK-293T
GLP-1R, sequence (P43220 24-463): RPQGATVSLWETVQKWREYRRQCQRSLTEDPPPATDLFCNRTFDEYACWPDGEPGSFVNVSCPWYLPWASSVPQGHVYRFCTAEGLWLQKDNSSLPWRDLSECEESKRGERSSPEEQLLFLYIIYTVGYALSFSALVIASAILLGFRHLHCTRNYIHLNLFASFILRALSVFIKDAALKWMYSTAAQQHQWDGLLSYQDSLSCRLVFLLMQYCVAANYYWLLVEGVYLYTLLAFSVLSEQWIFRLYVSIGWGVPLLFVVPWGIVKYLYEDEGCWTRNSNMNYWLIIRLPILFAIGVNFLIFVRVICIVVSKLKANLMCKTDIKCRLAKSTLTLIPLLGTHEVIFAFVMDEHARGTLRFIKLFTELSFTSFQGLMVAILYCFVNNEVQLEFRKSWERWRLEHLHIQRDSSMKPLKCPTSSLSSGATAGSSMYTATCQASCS
Experimental: HEK293T cells (3.2 × 10^6 cells/10 cm plate) were grown for 24 h before transiently transfection with 15 μg plasmid containing GIPR, GLP-1R or GCGR tagged with Rluc8 and β-arrestin 2 with a Venus-tag at the N terminus at a ratio of 1:9 by Lipofectamine 3000 transfection reagent. After cells were grown for 24 h, transiently transfected cells were then seeded onto poly-D-lysine coated 96-well culture plates (50,000 cells/well) in DMEM with 10% FBS. Cells were grown for 20 h before incubation in assay buffer (HBSS supplemented with 10 mM HEPES, 0.1% BSA or 0.1% casein, pH 7.4) for 30 min at 37 °C. Coelentrazine-h (Yeasen Biotech) was added to a final concentration of 5 μM for 5 min before bioluminescence resonance energy transfer (BRET) readings were made using an EnVision plate reader (PerkinElmer). BRET baseline measurements were collected for 15 cycles prior to ligand addition. After which, BRET was measured for 55 cycles.

GIPR = molecular target: T1, GIPR (Homo sapiens, UniProt P48546); assay: cAMP accumulation assay (LANCE Ultra cAMP kit), GIPR WT, mutant or modified constructs; set-up: acylated tirzepatide to the full-length or modified; Flag; expressed in transfected cells; host or cells: HEK293T; details: for EC50 / Emax: HEK293T; for Emax: HEK-293T, read-out: cAMP accumulation Emax
T1 sequence (P48546 22-466): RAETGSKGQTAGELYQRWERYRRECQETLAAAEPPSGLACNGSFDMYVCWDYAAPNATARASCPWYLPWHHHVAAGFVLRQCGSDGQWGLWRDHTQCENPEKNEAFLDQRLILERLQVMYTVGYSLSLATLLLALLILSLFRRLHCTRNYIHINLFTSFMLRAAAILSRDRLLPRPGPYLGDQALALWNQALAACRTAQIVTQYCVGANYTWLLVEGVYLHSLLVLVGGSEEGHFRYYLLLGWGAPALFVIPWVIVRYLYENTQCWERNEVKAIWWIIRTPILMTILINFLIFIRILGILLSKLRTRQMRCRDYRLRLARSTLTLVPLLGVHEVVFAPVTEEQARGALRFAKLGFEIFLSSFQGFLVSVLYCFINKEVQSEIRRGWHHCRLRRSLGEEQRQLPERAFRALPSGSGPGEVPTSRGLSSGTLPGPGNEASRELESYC
Experimental: (§1) Human embryonic kidney 293 cells containing SV40 large T-antigen (HEK293T) were cultured in DMEM (Gibco) supplemented with 10% (v/v) fetal bovine serum (FBS, Gibco), 1 mM sodium pyruvate (Gibco) and 100 units/mL penicillin and 100 μg/mL streptomycin at 37 °C in 5% CO2. Chinese hamster ovary (CHO-K1) cells were cultured in F-12 (Gibco) containing 10% FBS, 100 units/mL penicillin and 100 μg/mL streptomycin at 37 °C in 5% CO2. For cAMP and receptor expression assays, HEK293T cells were seeded into 6-well cell culture plates at a density of 7 × 10^5 cells per well. After overnight incubation, cells were transfected with GIPR, GLP-1R or GCGR construct using Lipofectamine 2000 or Lipofectamine 3000 transfection reagent (Invitrogen). For whole-cell binding assay, CHO-K1 cells were seeded into 96-well fibronectin-treated cell culture plates at a density of 3 × 10^4 cells per well. After overnight incubation, cells were transfected with GIPR, GLP-1R or GCGR construct using Lipofectamine 2000 transfection reagent (Invitrogen). Following 24 h culturing, the transfected cells were ready for use.
A BRIL fusion protein was added at the N-terminal of the ECD with a TEV protease site and 2GSA linker between them. C-terminal 45 amino acids (Q422-C466) of the receptor were truncated. LgBiT was added at the end of helix 8 with a 15-amino acid (15AA) polypeptide linker in between, followed by a TEV protease cleavage site and an OMBP-MBP tag. […] The construct and various mutants of human GIPR were cloned into pcDNA3.1 vector for cAMP accumulation and whole-cell binding assays.
(§2) For GIPR, GLP-1R and GCGR, multi-targeting agonist stimulated cAMP accumulation was measured by a LANCE Ultra cAMP kit (PerkinElmer). After 24 h culture, the transfected cells were seeded into 384-well microtiter plates at a density of 3,000 cells per well in HBSS supplemented with 5 mM HEPES, 0.1% (w/v) BSA or 0.1% (w/v) casein and 0.5 mM 3-isobutyl-1-methylxanthine. The cells were stimulated with different concentrations of peptide agonists for 40 min at RT. Eu-cAMP tracer and ULight^TM-anti-cAMP were then diluted by cAMP detection buffer and added to the plates separately to terminate the reaction. Plates were incubated at RT for 1 h and the fluorescence intensity measured at 620 nm and […] by an EnVision multilabel plate reader (PerkinElmer).

GCGR = GCGR (Homo sapiens, UniProt P47871); assay: cAMP accumulation assay, GCGR WT, mutant or modified constructs; set-up: V5 (C); 6×His (C); expressed in transfected cells; host or cells: HEK293T; details: for Emax: HEK-293T, read-out: cAMP accumulation Emax
GCGR, sequence (P47871 26-477): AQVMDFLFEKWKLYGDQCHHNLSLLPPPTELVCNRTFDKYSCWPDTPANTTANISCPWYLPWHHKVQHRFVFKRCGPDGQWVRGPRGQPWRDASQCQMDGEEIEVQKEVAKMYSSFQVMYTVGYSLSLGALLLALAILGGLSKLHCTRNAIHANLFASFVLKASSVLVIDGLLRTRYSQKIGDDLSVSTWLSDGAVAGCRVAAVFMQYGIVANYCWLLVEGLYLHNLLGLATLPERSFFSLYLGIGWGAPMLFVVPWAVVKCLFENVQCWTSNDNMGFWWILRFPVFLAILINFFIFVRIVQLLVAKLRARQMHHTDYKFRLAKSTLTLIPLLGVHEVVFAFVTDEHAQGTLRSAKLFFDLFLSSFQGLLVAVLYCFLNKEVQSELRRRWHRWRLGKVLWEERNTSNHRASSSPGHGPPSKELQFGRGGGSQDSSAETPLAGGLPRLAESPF
Experimental: as §1, with “use. […]” for “use.”
as §2

SMILES | EC50 (GLP-1R; 0.1% casein, read-out: β-arrestin 2 recruitment pEC50 (converted)) | Emax (GLP-1R; 0.1% BSA) | Emax (GLP-1R; 0.1% casein) | EC50 (GIPR; GIPR WT, 0.1% BSA, read-out: cAMP accumulation pEC50 (converted)) | reduction of cAMP accumulation vs peptide 20 (GIPR; GIPR, 0.1% BSA) | EC50 for cAMP accumulation relative to peptide 20 (GIPR; GIPR, 0.1% casein) | Emax (GIPR; GIPR WT, 0.1% BSA) | Emax (GIPR; GIPR WT, 0.1% casein) | EC50 (GCGR; GCGR WT, 0.1% BSA, HEK293T, read-out: cAMP accumulation pEC50 (converted)) | reduction of cAMP accumulation vs peptide 20 (GCGR; GCGR, 0.1% BSA) | EC50 for cAMP accumulation relative to peptide 20 (GCGR; GCGR, 0.1% casein) | Emax (GCGR; GCGR WT, 0.1% BSA, HEK293T) | Emax (GCGR; GCGR WT, 0.1% casein, HEK293T) | EC50 (GIPR; GIPR WT, read-out: cAMP pEC50 (converted)) | EC50 (GIPR; GIPR, n = 4, SEM, read-out: cAMP pEC50 ± S.E.M. (converted))
CC[C@H](C)[C@H](NC(=O)[C@H](CC(C)C)NC(=O)[C@H](Cc1c[nH]c2ccccc12)NC(=O)[C@H](CCC(N)=O)NC(=O)[C@@H](NC(=O)[C@H](Cc1ccccc1)NC(=O)[C@H](C)NC(=O)[C@H](CCCCN)NC(=O)[C@H](CCC(N)=O)NC(=O)[C@H](C)NC(=O)[C@@H](NC(=O)[C@H](CCCCN)NC(=O)[C@H](CC(=O)O)NC(=O)[C@H](CC(C)C)NC(=O)C(C)(C)NC(=O)[C@@H](NC(=O)[C@H](CO)NC(=O)[C@H](Cc1ccc(O)cc1)NC(=O)[C@H](CC(=O)O)NC(=O)[C@H](CO)NC(=O)[C@@H](NC(=O)[C@H](Cc1ccccc1)NC(=O)[C@@H](NC(=O)CNC(=O)[C@H](CCC(=O)O)NC(=O)C(C)(C)NC(=O)[C@@H](N)Cc1ccc(O)cc1)[C@@H](C)O)[C@@H](C)O)[C@@H](C)CC)[C@@H](C)CC)C(C)C)C(=O)N[C@@H](C)C(=O)NCC(=O)NCC(=O)N1CCC[C@H]1C(=O)N[C@@H](CO)C(=O)N[C@@H](CO)C(=O)NCC(=O)N[C@@H](C)C(=O)N1CCC[C@H]1C(=O)N1CCC[C@H]1C(=O)N1CCC[C@H]1C(=O)N[C@@H](CO)C(N)=O [Non-acylated tirzepatide] | 27.5 nM | 36.6 ± 0.52% | 40.77 ± 0.37% | 0.00182 nM |  |  |  |  |  |  |  |  |  |  | 
CC(C)C[C@H](NC(=O)[C@H](CC(C)C)NC(=O)[C@H](Cc1c[nH]c2ccccc12)NC(=O)[C@H](CCC(N)=O)NC(=O)[C@@H](NC(=O)[C@H](Cc1ccccc1)NC(=O)[C@H](CC(=O)O)NC(=O)[C@H](CCC(N)=O)NC(=O)[C@H](C)NC(=O)[C@H](C)NC(=O)[C@H](CCCNC(=N)N)NC(=O)[C@H](CCC(=O)O)NC(=O)[C@H](CC(=O)O)NC(=O)[C@H](CC(C)C)NC(=O)[C@H](Cc1ccc(O)cc1)NC(=O)[C@H](CCCCN)NC(=O)[C@H](CO)NC(=O)[C@H](CCCCN)NC(=O)[C@H](CC(=O)O)NC(=O)[C@H](CO)NC(=O)[C@@H](NC(=O)[C@H](Cc1ccccc1)NC(=O)[C@@H](NC(=O)CNC(=O)[C@H](CCC(N)=O)NC(=O)C(C)(C)NC(=O)[C@@H](N)Cc1c[nH]cn1)[C@@H](C)O)[C@@H](C)O)C(C)C)C(=O)N[C@@H](CC(=O)O)C(=O)NCC(=O)NCC(=O)N1CCC[C@H]1C(=O)N[C@@H](CO)C(=O)N[C@@H](CO)C(=O)NCC(=O)N[C@@H](C)C(=O)N1CCC[C@H]1C(=O)N1CCC[C@H]1C(=O)N1CCC[C@H]1C(=O)N[C@@H](CO)C(N)=O [Non-lipidated peptide 20] (H-H[Aib]QGTFTSDKSKYLDERAAQDFVQWLLDGGPSSGAPPPS-NH2; N-terminus and C-terminus assumed) |  | 65.4 ± 1.04% | 64.3 ± 3.97% |  | 1,288 fold | −871 fold | 99.4 ± 6.44% | 88.5 ± 6.52% | 1.95 nM | 759 fold | −1,514 fold | 105 ± 2.16% | 103 ± 1.98% |  | 
CC[C@H](C)[C@H](NC(=O)[C@H](CC(C)C)NC(=O)[C@H](Cc1c[nH]c2ccccc12)NC(=O)[C@H](CCC(N)=O)NC(=O)[C@@H](NC(=O)[C@H](Cc1ccccc1)NC(=O)[C@H](C)NC(=O)[C@H](CCCCNC(=O)COCCOCCNC(=O)COCCOCCNC(=O)CC[C@H](NC(=O)CCCCCCCCCCCCCCCCCCC(=O)O)C(=O)O)NC(=O)[C@H](CCC(N)=O)NC(=O)[C@H](C)NC(=O)[C@@H](NC(=O)[C@H](CCCCN)NC(=O)[C@H](CC(=O)O)NC(=O)[C@H](CC(C)C)NC(=O)C(C)(C)NC(=O)[C@@H](NC(=O)[C@H](CO)NC(=O)[C@H](Cc1ccc(O)cc1)NC(=O)[C@H](CC(=O)O)NC(=O)[C@H](CO)NC(=O)[C@@H](NC(=O)[C@H](Cc1ccccc1)NC(=O)[C@@H](NC(=O)CNC(=O)[C@H](CCC(=O)O)NC(=O)C(C)(C)NC(=O)[C@@H](N)Cc1ccc(O)cc1)[C@@H](C)O)[C@@H](C)O)[C@@H](C)CC)[C@@H](C)CC)C(C)C)C(=O)N[C@@H](C)C(=O)NCC(=O)NCC(=O)N1CCC[C@H]1C(=O)N[C@@H](CO)C(=O)N[C@@H](CO)C(=O)NCC(=O)N[C@@H](C)C(=O)N1CCC[C@H]1C(=O)N1CCC[C@H]1C(=O)N1CCC[C@H]1C(=O)N[C@@H](CO)C(N)=O [Tirzepatide] |  |  |  |  |  |  |  |  |  |  |  |  |  | 0.0288 nM | 0.0126 nM
